Assay results from patent publication US8772332B2, “Arylpropionyl-alpha-pyrone antibacterial agents” (priority 2010, dated 2014).
≈ marks a conversion by molar mass, not a printed value.

Experiments:
[1] = molecular target: E. coli RNA polymerase σ70 holoenzyme (Escherichia coli, UniProt P0A8T7+P0A8V2); experiment: Fluorescence-detected RNA polymerase assay, E. coli RNA polymerase; assay type: biochemical; conditions: RiboGreen fluorescence, read-out: IC50 E. coli RNAP
Description: Fluorescence-detected RNA polymerase assays with E. coli RNA polymerase were performed by a modification of the procedure of Kuhlman et al., 2004 [Kuhlman, P., Duff, H. & Galant, A. (2004) A fluorescence-based assay for multisubunit DNA-dependent RNA polymerases. Anal. Biochem. 324, 183-190]. Reaction mixtures contained (20 μl): 0-100 nM test compound, 75 nM E. coli RNA polymerase σ^70 holoenzyme, 20 nM 384 bp DNA fragment containing the bacteriophage T4 N25 promoter, 100 μM ATP, 100 μM GTP, 100 μM UTP, 100 μM CTP, 50 mM Tris-HCl, pH 8.0, 100 mM KCl, 10 mM MgCl2, 1 mM DTT, 10 μg/ml bovine serum albumin, and 5.5% glycerol. Reaction components other than DNA and NTPs were pre-incubated for 10 min at 37° C. Reactions were carried out by addition of DNA and incubation for 5 min at 37° C., followed by addition of NTPs and incubation for 60 min at 37° C. DNA was removed by addition of 1 μl 5 mM CaCl2 and 2 U DNaseI (Ambion, Inc.), followed by incubation for 90 min at 37° C. RNA was quantified by addition of 100 μl RiboGreen RNA Quantitation Reagent (Invitrogen, Inc.; 1:500 dilution in Tris-HCl, pH 8.0, 1 mM EDTA), followed by incubation for 10 min at 25° C., followed by measurement of fluorescence intensity [excitation wavelength=485 nm and emission wavelength=535 nm; QuantaMaster QM1 spectrofluorometer (PTI, Inc.)]. […]

[2] = system: Mycobacterium tuberculosis H37Rv; experiment: MIC, microplate Alamar Blue assay; assay type: cell-based
Text: MICs for Mycobacterium tuberculosis were quantified using microplate Alamar Blue assays as described [Collins, L. & Franzblau, S. (1997) Microplate Alamar Blue assay versus BACTEC 460 system for high-throughput screening of compounds against Mycobacterium tuberculosis and Mycobacterium avium. Antimicrob. Agents Chemother. 41, 1004-1009].

[3] = system: Enterococcus faecalis ATCC 19433; experiment: MIC, spiral gradient endpoint assay; assay type: cell-based; conditions: ATCC19433, Mueller-Hinton II agar, 16 h at 37° C., read-out: MIC E. faecalis 19433
Text: (§1) Minimum inhibitory concentrations (MICs) for Staphylococcus aureus ATCC 12600, Staphylococcus aureus ATCC 13709 MSSA, Staphylococcus aureus BAA-1707 MRSA (MW2), Staphylococcus aureus BAA-1717 MRSA (USA300), Enterococcus faecalis ATCC 19433, Enterococcus faecium ATCC19434, and Escherichia coli D21f2tolC were quantified using spiral gradient endpoint assays, essentially as described [Wallace, A. and Corkill, J. (1989) Application of the spiral plating method to study antimicrobial action. J. Microbiol. Meths. 10, 303-310; Paton, J., Holt, A., and Bywater, M. (1990) Measurement of MICs of antibacterial agents by spiral gradient endpoint compared with conventional dilution methods. Int. J. Exp. Gin. Chemother. 3, 31-38; Schalkowsky S. (1994) Measures of susceptibility from a spiral gradient of drug concentrations. Adv. Exp. Med. Biol. 349, 107-120]. Assays employed exponential-gradient plates containing 150 mm×4 mm Mueller-Hinton II cation-adjusted agar and 0.4-100 μg/ml of test compound. Plates were prepared using an Autoplate 4000 spiral plater (Spiral Biotech, Inc.). Saturated overnight cultures were swabbed radially onto plates, and plates were incubated for 16 h at 37° C. For each culture, the streak length was measured using a clear plastic template (Spiral Biotech, Inc.), the test-compound concentration at the streak endpoint was calculated using the program SGE (Spiral Biotech, Inc.), and the MIC was defined as the calculated test-compound concentration at the streak endpoint.

[4] = system: Enterococcus faecium ATCC19434; experiment: MIC, spiral gradient endpoint assay; assay type: cell-based; conditions: Mueller-Hinton II agar, 16 h at 37° C., read-out: MIC E. faecium 19434
Text: as §1

[5] = system: Escherichia coli D21f2tolC; experiment: MIC, spiral gradient endpoint assay; assay type: cell-based; conditions: 16 h, read-out: MIC E. coli D21f2tolC
Text: as §1

[6] = system: Staphylococcus aureus ATCC 12600; experiment: MIC, spiral gradient endpoint assay; assay type: cell-based; conditions: ATCC12600, Mueller-Hinton II agar, 16 h at 37° C., read-out: MIC S. aureus 12600
Text: as §1

[7] = system: Staphylococcus aureus ATCC 13709 MSSA; experiment: MIC, spiral gradient endpoint assay; assay type: cell-based; conditions: Mueller-Hinton II agar, 16 h at 37° C., read-out: MIC S. aureus 13709
Text: as §1

[8] = system: Staphylococcus aureus BAA-1707 MRSA (MW2); experiment: MIC, spiral gradient endpoint assay; assay type: cell-based; conditions: Mueller-Hinton II agar, 16 h at 37° C., read-out: MIC S. aureus MRSA 1707
Text: as §1

[9] = system: Staphylococcus aureus BAA-1717 MRSA (USA300); experiment: MIC, spiral gradient endpoint assay; assay type: cell-based; conditions: Mueller-Hinton II agar, 16 h at 37° C., read-out: MIC S. aureus MRSA 1717
Text: as §1

E. coli RNA polymerase σ70 holoenzyme, sequence (P0A8V2 whole entry, the tested form may be a part): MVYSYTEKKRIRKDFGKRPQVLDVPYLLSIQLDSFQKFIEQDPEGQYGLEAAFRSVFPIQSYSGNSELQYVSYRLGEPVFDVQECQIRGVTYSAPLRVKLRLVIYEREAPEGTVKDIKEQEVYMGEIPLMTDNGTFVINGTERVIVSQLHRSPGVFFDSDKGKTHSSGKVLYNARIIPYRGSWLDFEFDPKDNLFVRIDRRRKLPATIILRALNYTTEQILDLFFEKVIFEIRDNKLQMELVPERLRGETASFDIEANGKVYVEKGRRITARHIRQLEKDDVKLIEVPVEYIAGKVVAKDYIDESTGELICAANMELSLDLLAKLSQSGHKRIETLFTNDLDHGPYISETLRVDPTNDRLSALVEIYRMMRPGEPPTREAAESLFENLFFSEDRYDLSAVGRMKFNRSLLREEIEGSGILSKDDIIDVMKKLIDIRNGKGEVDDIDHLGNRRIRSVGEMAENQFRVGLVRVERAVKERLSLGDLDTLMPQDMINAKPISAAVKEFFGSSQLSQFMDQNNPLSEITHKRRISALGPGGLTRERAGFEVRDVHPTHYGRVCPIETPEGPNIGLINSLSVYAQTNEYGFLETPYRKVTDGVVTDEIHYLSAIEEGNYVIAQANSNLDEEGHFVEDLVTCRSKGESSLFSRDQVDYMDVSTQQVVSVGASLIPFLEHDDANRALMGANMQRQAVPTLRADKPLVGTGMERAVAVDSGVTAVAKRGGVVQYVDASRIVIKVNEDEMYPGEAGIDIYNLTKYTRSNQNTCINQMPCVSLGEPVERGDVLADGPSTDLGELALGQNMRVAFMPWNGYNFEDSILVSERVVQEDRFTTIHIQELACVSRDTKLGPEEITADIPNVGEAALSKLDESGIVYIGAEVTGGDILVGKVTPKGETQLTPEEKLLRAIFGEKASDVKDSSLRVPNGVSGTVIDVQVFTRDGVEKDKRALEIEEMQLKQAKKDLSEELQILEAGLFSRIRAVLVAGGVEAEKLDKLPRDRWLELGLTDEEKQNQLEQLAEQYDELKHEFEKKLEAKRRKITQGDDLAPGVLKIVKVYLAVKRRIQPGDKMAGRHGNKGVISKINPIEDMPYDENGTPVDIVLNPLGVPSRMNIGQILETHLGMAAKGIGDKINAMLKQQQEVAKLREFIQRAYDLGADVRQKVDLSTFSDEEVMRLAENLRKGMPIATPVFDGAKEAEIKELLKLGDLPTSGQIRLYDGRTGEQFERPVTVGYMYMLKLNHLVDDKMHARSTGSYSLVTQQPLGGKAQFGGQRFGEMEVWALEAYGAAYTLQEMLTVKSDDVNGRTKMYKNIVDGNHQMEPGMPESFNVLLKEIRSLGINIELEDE
E. coli RNA polymerase σ70 holoenzyme, sequence (P0A8T7 whole entry, the tested form may be a part): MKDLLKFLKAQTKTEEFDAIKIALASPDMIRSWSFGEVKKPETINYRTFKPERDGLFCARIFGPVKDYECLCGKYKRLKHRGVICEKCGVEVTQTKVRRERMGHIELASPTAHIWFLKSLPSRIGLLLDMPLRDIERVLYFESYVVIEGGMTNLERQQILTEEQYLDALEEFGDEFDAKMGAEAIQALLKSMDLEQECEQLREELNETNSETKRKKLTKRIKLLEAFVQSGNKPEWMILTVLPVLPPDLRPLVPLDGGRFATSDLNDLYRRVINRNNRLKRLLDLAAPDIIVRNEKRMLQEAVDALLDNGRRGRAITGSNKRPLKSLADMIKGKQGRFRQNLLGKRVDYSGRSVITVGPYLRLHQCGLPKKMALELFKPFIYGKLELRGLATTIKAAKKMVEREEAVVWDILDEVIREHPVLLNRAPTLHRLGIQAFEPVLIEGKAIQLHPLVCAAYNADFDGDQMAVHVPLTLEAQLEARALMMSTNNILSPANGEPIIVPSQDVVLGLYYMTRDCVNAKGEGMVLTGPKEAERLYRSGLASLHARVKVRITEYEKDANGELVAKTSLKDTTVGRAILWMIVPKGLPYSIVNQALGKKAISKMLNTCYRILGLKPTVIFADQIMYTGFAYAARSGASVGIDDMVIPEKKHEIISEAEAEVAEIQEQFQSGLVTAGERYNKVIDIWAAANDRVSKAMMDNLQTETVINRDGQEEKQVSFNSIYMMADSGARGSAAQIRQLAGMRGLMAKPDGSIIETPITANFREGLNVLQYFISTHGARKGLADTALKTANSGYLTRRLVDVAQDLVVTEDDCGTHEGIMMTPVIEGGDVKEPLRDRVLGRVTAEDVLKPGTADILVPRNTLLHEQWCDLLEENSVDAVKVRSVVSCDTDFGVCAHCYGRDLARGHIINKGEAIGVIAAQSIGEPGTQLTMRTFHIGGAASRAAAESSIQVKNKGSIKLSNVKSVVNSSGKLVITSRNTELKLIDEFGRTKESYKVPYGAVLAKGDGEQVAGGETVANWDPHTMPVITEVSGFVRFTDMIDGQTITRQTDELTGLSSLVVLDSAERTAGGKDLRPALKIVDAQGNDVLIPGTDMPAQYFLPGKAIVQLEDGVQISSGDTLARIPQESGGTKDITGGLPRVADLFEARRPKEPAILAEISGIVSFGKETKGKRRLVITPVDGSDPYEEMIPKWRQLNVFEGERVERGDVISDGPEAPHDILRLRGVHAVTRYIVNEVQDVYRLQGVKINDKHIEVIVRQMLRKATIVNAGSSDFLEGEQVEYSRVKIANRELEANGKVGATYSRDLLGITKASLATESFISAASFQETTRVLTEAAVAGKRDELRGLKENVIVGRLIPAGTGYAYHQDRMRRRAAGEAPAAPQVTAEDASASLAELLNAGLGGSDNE
E. coli RNA polymerase σ70 holoenzyme, sequence (P0A7Z4 whole entry partner, the tested form may be a part): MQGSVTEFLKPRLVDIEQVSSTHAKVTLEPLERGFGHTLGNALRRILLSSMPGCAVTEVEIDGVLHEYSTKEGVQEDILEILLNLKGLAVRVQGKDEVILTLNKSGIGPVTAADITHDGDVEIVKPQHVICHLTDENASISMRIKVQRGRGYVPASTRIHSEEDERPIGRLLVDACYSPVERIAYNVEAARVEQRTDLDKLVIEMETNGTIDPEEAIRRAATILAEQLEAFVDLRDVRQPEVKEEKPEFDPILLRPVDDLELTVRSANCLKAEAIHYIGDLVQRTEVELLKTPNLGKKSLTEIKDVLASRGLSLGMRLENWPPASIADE
E. coli RNA polymerase σ70 holoenzyme, sequence (P0A800 whole entry partner, the tested form may be a part): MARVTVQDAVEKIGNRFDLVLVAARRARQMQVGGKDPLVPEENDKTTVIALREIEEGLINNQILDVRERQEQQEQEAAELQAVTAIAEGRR
E. coli RNA polymerase σ70 holoenzyme, sequence (P00579 whole entry partner, the tested form may be a part): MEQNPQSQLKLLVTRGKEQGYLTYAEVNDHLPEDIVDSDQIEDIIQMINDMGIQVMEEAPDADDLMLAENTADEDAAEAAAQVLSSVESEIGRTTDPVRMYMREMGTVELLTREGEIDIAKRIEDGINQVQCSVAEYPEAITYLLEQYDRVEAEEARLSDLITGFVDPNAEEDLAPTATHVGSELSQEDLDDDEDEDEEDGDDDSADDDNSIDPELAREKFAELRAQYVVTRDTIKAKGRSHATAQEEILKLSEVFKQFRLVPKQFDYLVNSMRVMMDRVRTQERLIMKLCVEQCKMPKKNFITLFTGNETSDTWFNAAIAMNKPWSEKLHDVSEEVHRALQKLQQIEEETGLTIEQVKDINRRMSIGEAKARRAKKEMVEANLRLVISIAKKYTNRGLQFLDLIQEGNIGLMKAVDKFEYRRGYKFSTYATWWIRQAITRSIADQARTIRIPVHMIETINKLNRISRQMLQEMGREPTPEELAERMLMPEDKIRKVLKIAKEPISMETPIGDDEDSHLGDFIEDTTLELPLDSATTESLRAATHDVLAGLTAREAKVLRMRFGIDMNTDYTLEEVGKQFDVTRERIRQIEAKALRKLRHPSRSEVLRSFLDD

CCCCCC1=CC(=O)C(C(=O)CCc2ccccc2)C(=O)O1 (stereo not drawn) [Compound 1, 4-hydroxy-6-pentyl-3-(3-phenylpropanoyl)-2-pyrone]
IC50 [1]: 37 µM | MIC [2]: 9 µg/mL (≈ 28.6 µM) | MIC [3]: 3 µg/mL (≈ 9.54 µM) | MIC [4]: 7 µg/mL (≈ 22.3 µM) | MIC [5]: 3 µg/mL (≈ 9.54 µM) | MIC [6]: 6 µg/mL (≈ 19.1 µM) | MIC [7]: 9 µg/mL (≈ 28.6 µM) | MIC [8]: 5 µg/mL (≈ 15.9 µM) | MIC [9]: 8 µg/mL (≈ 25.4 µM)
